Measurements reported in patent publication US8563236B2, “Mutational profiles in HIV-1 reverse transcriptase correlated with phenotypic drug resistance” (priority 1999, dated 2013).

Columns and labels:
Type in all cases: cell-based, HIV-1
[1] = test system: variants with the 69S-[S-S] insert plus AZT resistance mutations; assay: MT-4 cell CPE protection assay, site-directed mutant viruses (group statement)
Procedure: (§1) MT-4 cells (Harada S., et al, Science 229: 563-566 (1985).) were co-transfected with pol gene PCR fragments and the protease-RT deleted HIV-1 molecular clone, pGEM3ΔPRT, as described. See Hertogs K., et al., Antimicrob. Agents Chemother. 42: 269-276 (1998). […] Phenotypic susceptibility to nucleoside analogues was determined using an MT-4 cell viral cytopathic effect (CPE) protection assay as described. Id. Fold resistance values were derived by dividing the mean IC50 for a patient's recombinant virus by the mean IC50 for wild-type control virus (strain HXB2-D).
Mutations in the RT coding region were created by site-directed mutagenesis of a wild-type HXB2-D EcoRI-PstI restriction enzyme fragment, encompassing the HIV-1 pol gene and cloned into pGEM3 (Promega). Single and multiple nucleotide changes were introduced into RT using the ExSite mutagenesis kit (Strategene). All mutant clones were verified by DNA sequence analysis of the entire RT. PCR fragments were prepared from the mutated clones and the altered RT coding regions were transferred into the HIV-1 HXB2-D genetic background by homologous recombination as described above. The susceptibility of these recombinant viruses to nucleoside analogues was subsequently determined by the MT-4 cell CPE protection assay. Id. […]

wild-type HXB2-D virus = assay: MT-4 cell CPE protection assay, wild-type control virus
Procedure: (§2) Mutations were created in HIV-1 RT by site-directed mutagenesis and the mutant RT was then transferred into the HXB2-D wild-type virus background. The specific mutations created in this background are indicated. The nucleoside susceptibility of mutant viruses (fold increase in IC50 value relative to wild-type HXB2-D virus control) was assessed as described in ‘Methods’.
as §1
(§3) Mutations in the RT coding region were created by site-directed mutagenesis of a wild-type HXB2-D EcoRI-PstI restriction enzyme fragment, encompassing the HIV-1 pol gene and cloned into pGEM3 (Promega). Single and multiple nucleotide changes were introduced into RT using the ExSite mutagenesis kit (Strategene). All mutant clones were verified by DNA sequence analysis of the entire RT. PCR fragments were prepared from the mutated clones and the altered RT coding regions were transferred into the HIV-1 HXB2-D genetic background by homologous recombination as described above. The susceptibility of these recombinant viruses to nucleoside analogues was subsequently determined by the MT-4 cell CPE protection assay. Id.

[2] = test system: HXB2-D virus with RT 210W, 215Y, 62V; assay: MT-4 cell CPE protection assay, site-directed mutant virus
Procedure: as §2, §1, §3

[3] = test system: HXB2-D virus with RT 210W, 215Y; assay: as above
Procedure: as §2, §1, §3

[4] = test system: HXB2-D virus with RT 69S-[S-S], 210W, 215Y, 62V; assay: as above
Procedure: as §2, §1, §3

[5] = test system: HXB2-D virus with RT 69S-[S-S], 210W, 215Y; assay: as above
Procedure: as §2, §1, §3

[6] = test system: HXB2-D virus with RT 69S-[S-S]; assay: as above
Procedure: as §2, §1, §3

[7] = test system: codon 151 cluster viruses
From the text: (§4) FIG. 2: Nucleoside analogue susceptibility of MDR patient-derived recombinant HIV variants. Recombinant viruses were produced from patient plasma samples as described in Example 2 and tested for susceptibility to (a) d4T, (b) ddC and (c) ddI. […] Error bars indicate standard errors. Note that the total number (n=310) is higher than the 302 MDR samples described because a small minority were 69D/N and 75M double mutants and are represented in both groups.
as §1
(§5) From this analysis, 302 samples were identified with four-fold or greater increases in IC50 (relative to a wild-type control virus) to at least four of these inhibitors. Thus, a substantial number of MDR viruses were present in the sample population.
(§6) Genotypic analysis was performed on all 892 samples by dideoxy-nucleotide sequencing. […] A comparison of the incidence of specific RT mutations in MDR samples versus non-MDR in the population surveyed is shown in FIG. 1. This analysis highlighted the incidence of the codon 151 mutational cluster in the MDR group. In addition, a novel family of amino acid insertions and rearrangements between codons 67 and 70 were also prevalent in the MDR group. These two patterns of mutations were correlated with high-level phenotypic multi-nucleoside resistance (FIG. 2), 27 samples having the codon 151 cluster and 45 samples having insertions and rearrangements (typically a T69S substitution, followed by insertion of two amino acids).

[8] = test system: codon 69 insertion mutants
From the text: as §4, §1, §5, §6

[9] = test system: samples with AZT and 3TC resistance mutations plus T69A/N or V175M; assay: Recombinant virus assay, MDR patient-derived recombinant HIV variants
From the text: as §4, §1, §5
Genotypic analysis was performed on all 892 samples by dideoxy-nucleotide sequencing. […]

[10] = test system: HXB2-D virus with T69A or V75M in a background of AZT mutations; assay: MT-4 cell CPE protection assay, site-directed mutant viruses
Procedure: as §1, §3
To investigate the significance of the observed mutational patterns correlated with MDR virus we constructed a series of viruses by site-directed mutagenesis with specific changes in a defined genetic background (HXB2-D). […] In addition, the potential role of A62V, a substitution also frequently correlated with the insertions was investigated by adding this mutation to a background of 69S-[S-S] plus 210W/215Y.

[11] = test system: mutants carrying mutation 184V; assay: Drug susceptibility assay, site-directed mutants (group statement); conditions: high resistance caused by mutation 184V
Procedure: Phenotypic analysis was performed using the recombinant virus assay. See Kellam, P., and B. A. Larder. Antimicrob Agents Chemother 38:23-30 (1994); Hertogs, K., et al., Agents Chemother. 42:269-276 (1998); Pauwels, R., et al., Abstracts of the 2nd International Workshop on HIV Drug Resistance and Treatment Strategies, Abstr. 51. Lake Maggiore, Italy (1998). Briefly, protease (PR) and reverse transcriptase (RT) coding sequences were amplified from patient-derived viral RNA with HIV-1 specific primers. After homologous recombination of amplicons into a PR-RT deleted proviral clone, the resulting recombinant viruses were harvested, titrated and used for in vitro susceptibility testing to antiretroviral drugs. The results of this analysis were expressed as fold-resistance values, reflecting the fold-increase in mean IC50 (μM) of a particular drug when tested with patient-derived recombinant virus isolates, relative to the mean IC50 (μM) of the same drug obtained when tested with a reference wild-type virus isolate (IIIB/LAI).
For the modeling studies, mutations were generated in the RT gene of HXB2, a wild-type laboratory HIV-1 strain, using the QuikChange^J Site-Directed Mutagenesis Kit, Stratagene^7, Stratagene Cloning systems, La Jolla, Calif., USA.
Two of them carried both 44D/A and 181I, while all but one (SDM23) carried ZDV resistance-correlated mutations. […]

[12] = Human immunodeficiency virus 1, MT4, mean values

| SMILES | susceptibility [1] | IC50 (wild-type HXB2-D virus; [12]) | Fold increase in IC50 ([2]; {}) | Fold increase in IC50 ([3]; {}) | Fold increase in IC50 ([4]; {}) | Fold increase in IC50 ([5]; {}) | Fold increase in IC50 ([6]; {}) | mean fold increase in IC50 (resistance) [7] | mean fold increase in IC50 (resistance) [8] | level of resistance [9] | resistance conferred [10] | IC50 (wild-type HXB2-D virus; mean values) | Fold increase in IC50 ([2]; mutant genotype 210W, 215Y, 62V, relative to wild-type HXB2-D, mean of two determinations) | Fold increase in IC50 ([3]; mutant genotype 210W, 215Y, relative to wild-type HXB2-D, mean of two determinations) | Fold increase in IC50 ([4]; mutant genotype 69S-[S-S], 210W, 215Y, 62V, relative to wild-type HXB2-D, mean of two determinations) | Fold increase in IC50 ([5]; mutant genotype 69S-[S-S], 210W, 215Y, relative to wild-type HXB2-D, mean of two determinations) | Fold increase in IC50 ([6]; mutant genotype 69S-[S-S], relative to wild-type HXB2-D, mean of two determinations) | resistance (fold) [11] |
| --- | --- | --- | --- | --- | --- | --- | --- | --- | --- | --- | --- | --- | --- | --- | --- | --- | --- | --- |
| Cc1cn([C@H]2C[C@H](N=[N+]=[N-])[C@@H](CO)O2)c(=O)[nH]c1=O [AZT, zidovudine] | decreased susceptibility | – | – | – | – | – | – | – | – | – | – | – | – | – | – | – | – | – |
| Cc1cn([C@H]2C=C[C@@H](CO)O2)c(=O)[nH]c1=O [d4T, stavudine] | – | 2390 nM | 0.7 fold | 1.1 fold | 5.2 fold | 4.8 fold | 2.3 fold | > 10 fold | > 10 fold | modest levels of resistance | little or no resistance | – | – | – | – | – | – | – |
| O=c1[nH]cnc2c1ncn2[C@H]1CC[C@@H](CO)O1 [ddI, didanosine] | – | 4600 nM | 0.5 fold | 1.2 fold | 1.8 fold | 2.1 fold | 1.7 fold | – | – | – | little or no resistance | – | – | – | – | – | – | – |
| Nc1ccn([C@H]2CC[C@@H](CO)O2)c(=O)n1 [ddC, zalcitabine] | – | 1410 nM | 0.8 fold | 1.2 fold | 2.7 fold | 4.2 fold | 2.1 fold | > 10 fold | > 10 fold | modest levels of resistance | little or no resistance | – | – | – | – | – | – | – |
| Nc1nc(NC2CC2)c2ncn(C3C=CC(CO)C3)c2n1 (stereo not drawn) [compound 1592, 4-[(2-amino-6-cyclopropyl-amino)-9H-purin-9-yl]-2-cyclopentene-1-methanol] | decreased susceptibility | – | – | – | – | – | – | – | – | – | – | 2900 nM | 0.7 fold | 1.5 fold | 5.4 fold | 4.6 fold | 2.6 fold | – |
| Nc1ccn([C@@H]2CS[C@H](CO)O2)c(=O)n1 [3TC, lamivudine] | – | 1670 nM | 1.3 fold | 3.8 fold | 15 fold | 20 fold | 6.2 fold | – | – | – | – | – | – | – | – | – | – | > 62 fold |
